Converted amounts (≈) assume the structure as drawn. The source made the active and inactive calls. The rule behind the calls is not given here.
What was measured:
Aspergillus fumigatus [1] = test: Antifungal activity against Aspergillus fumigatus assessed as inhibition of fungal growth by serial dilution assay; assay type: functional
Candida albicans [2] = test: Antifungal activity against Candida albicans assessed as inhibition of fungal growth by serial dilution assay; assay type: functional
[3] = Stability in PBS at pH 7.4 assessed as half life by HPLC analysis; assay type: physicochemical
[4] = Stability in human plasma in PBS at pH 7.4 assessed as half life by HPLC analysis; assay type: ADME, cell-free
HEK293 [5] = test: Cytotoxicity against human HEK293 cells at 12.5 uM incubated for 24 hrs by Hoechst 33258 staining based flow cytometry; assay type: toxicity, cell-based; conditions: hek293, 24 h
HEK293 [6] = test: Cytotoxicity against human HEK293 cells at 6.25 to 100 uM incubated for 24 hrs by Hoechst 33258 staining based flow cytometry; assay type: toxicity, cell-based; conditions: hek293, 24 h, dose 6.25-100 µM
HEK293 [7] = test: Cytotoxicity against human HEK293 cells at 6.25 to 12.5 uM incubated for 24 hrs by Hoechst 33258 staining based flow cytometry; assay type: toxicity, cell-based; conditions: hek293, 24 h, dose 6.25-12.5 µM
[8] = Toxicity in Galleria mellonella larvae assessed as effect on survival at 15 mg/kg measured for 144 hrs; assay type: organism-based; conditions: in vivo
Candida albicans [9] = test: Antifungal activity against Candida albicans ATCC90028 infected in Galleria mellonella larvae assessed as increase in larval survival at 15 mg/kg measured after 6 days; assay type: functional, organism-based; conditions: time 6.0 day
Aspergillus fumigatus [10] = test: Antifungal activity against Aspergillus fumigatus ATCC204305 infected in Galleria mellonella larvae assessed as increase in larval survival at 15 mg/kg measured after 6 days; assay type: functional, organism-based; conditions: time 6.0 day
[11] = Toxicity in human HEK293 cells assessed as reduction in cell confluency at 50 uM incubated for 24 hrs by mitotracker red staining based confocal microscopic analysis; parameters: scale not given: the % may be the effect or the level left; conditions: hek293, 24 h
Candida albicans [12] = test: Antifungal activity against Candida albicans ATCC90028 infected in Galleria mellonella larvae assessed as larval survival at 15 mg/kg measured after 6 days; assay type: functional; conditions: time 6 day
[13] = Cytotoxicity against human HEK293 cells assessed as cell viability at 100 uM incubated for 24 hrs by Hoechst 33258 staining based flow cytometry; assay type: toxicity; conditions: read-out: Activity
Aspergillus fumigatus [14] = test: Antifungal activity against Aspergillus fumigatus ATCC204305 infected in Galleria mellonella larvae assessed as larval survival at 15 mg/kg measured after 6 days; assay type: functional; conditions: time 6 day
[15] = Toxicity in human HEK293 cells assessed as effect on cell viability at 50 uM incubated for 24 hrs by confocal microscopic analysis; assay type: cell-based; conditions: hek293, 24 h
[16] = Toxicity in human HEK293 cells assessed as effect on mitochondrial morphology at 50 uM incubated for 24 hrs by mitotracker red staining based confocal microscopic analysis; assay type: cell-based; conditions: hek293, 24 h
[17] = Toxicity in human HEK293 cells assessed as effect on polymerized actin signal at 50 uM incubated for 24 hrs by phalloidin conjugated AlexaFluor-488 staining based confocal microscopic analysis; assay type: cell-based; conditions: hek293, 24 h
[18] = Toxicity in human HEK293 cells assessed as effect on polymerized actin pattern at 50 uM incubated for 24 hrs by phalloidin conjugated AlexaFluor-488 staining based confocal microscopic analysis; assay type: cell-based; conditions: hek293, 24 h
Candida albicans [19] = test: Antifungal activity against Candida albicans ATCC90028 infected in Galleria mellonella larvae assessed as larval survival at 15 mg/kg measured after 72 hrs; assay type: functional
[20] = Toxicity in human HEK293 cells assessed as reduction in cell viability at 50 uM incubated for 24 hrs by mitotracker red staining based confocal microscopic analysis; conditions: hek293, 24 h
[21] = Toxicity in Galleria mellonella larvae assessed as larvae death at 15 mg/kg measured for 144 hrs; assay type: organism-based; conditions: in vivo
[22] = Toxicity in human HEK293 cells assessed as effect on adherent cells at 6.25 uM incubated for 24 hrs by confocal microscopic analysis; assay type: cell-based; conditions: hek293, 24 h
[23] = Toxicity in human HEK293 cells assessed as effect on cell physiology at 6.25 uM incubated for 24 hrs by confocal microscopic analysis; assay type: cell-based; conditions: hek293, 24 h
[24] = Toxicity in human HEK293 cells assessed as effect on cell morphology at 6.25 uM incubated for 24 hrs by confocal microscopic analysis; assay type: cell-based; conditions: hek293, 24 h
Candida albicans [25] = test: Antifungal activity against Candida albicans K1 assessed as inhibition of fungal growth; assay type: functional
Candida albicans [26] = test: Antifungal activity against Candida albicans SN250 assessed as inhibition of fungal growth by broth dilution assay; assay type: functional

Structure (SMILES) | MIC90 (Aspergillus fumigatus [1]) [µg/mL] | half-life [3] [h] | half-life [4] [h] | Activity (HEK293 [5]) | Activity (HEK293 [7]) | Activity [8] | Activity (Candida albicans [9]) | Activity (Aspergillus fumigatus [10]) | Activity [11] | Activity (Candida albicans [12]) [%] | viability at 24 h, 100 µM [13] [%] | other results
CC(C)OC(=O)OCOC(=O)[C@H]1[C@@H]2C[C@@H](O[C@@H]3O[C@H](C)[C@@H](O)[C@H](N)[C@@H]3O)/C=C/C=C/C=C/C=C/C=C/C=C/C=C/[C@H](C)[C@@H](O)[C@@H](C)[C@H](C)OC(=O)C[C@H](O)C[C@H](O)CC[C@@H](O)[C@H](O)C[C@H](O)C[C@](O)(C[C@@H]1O)O2 | > 16 | 7.6 | 3.3 | Toxic | Toxic | Non-toxic | Active | Active | ~ 10% | 10 |  | MIC90 (Candida albicans [2]): 2 µg/mL (≈ 1.92 µM); Activity (HEK293 [6]): Non-toxic
CCOC(=O)[C@H](C)OP(=O)(OCC)Oc1ccc(COC(=O)N[C@@H]2[C@H](O)[C@H](O[C@H]3/C=C/C=C/C=C/C=C/C=C/C=C/C=C/[C@H](C)[C@@H](O)[C@@H](C)[C@H](C)OC(=O)C[C@H](O)C[C@H](O)CC[C@@H](O)[C@H](O)C[C@H](O)C[C@]4(O)C[C@H](O)[C@@H](C(=O)O)[C@H](C3)O4)O[C@H](C)[C@H]2O)cc1 (stereo partly drawn) | > 16 | 18 | 4.5 | Toxic | Toxic | Non-toxic | Active | Active | ~ 50% | 10 | ~78 | Activity (Aspergillus fumigatus [14]): 40%; Activity [15]: Non-toxic; Activity [16]: Non-toxic; Activity [17]: Non-toxic; Activity [18]: Non-toxic
CCOC(=O)[C@H](C)OP(=O)(OCC)Oc1ccc(COC(=O)OCOC(=O)[C@H]2[C@@H]3C[C@@H](O[C@@H]4O[C@H](C)[C@@H](O)[C@H](N)[C@@H]4O)/C=C/C=C/C=C/C=C/C=C/C=C/C=C/[C@H](C)[C@@H](O)[C@@H](C)[C@H](C)OC(=O)C[C@H](O)C[C@H](O)CC[C@@H](O)[C@H](O)C[C@H](O)C[C@](O)(C[C@@H]2O)O3)cc1 (stereo partly drawn) | 2 (≈ 1.52 µM) | 2.8 | 2.2 | Toxic | Toxic | Non-toxic | Active | Active |  | 40 |  | MIC90 (Candida albicans [2]): 2 µg/mL (≈ 1.52 µM); Activity (HEK293 [6]): Toxic; Activity (Candida albicans [19]): 70%; Activity [20]: Toxic
CCOP(=O)(OCCOC(C)=O)Oc1ccc(COC(=O)N[C@@H]2[C@H](O)[C@H](O[C@H]3/C=C/C=C/C=C/C=C/C=C/C=C/C=C/[C@H](C)[C@@H](O)[C@@H](C)[C@H](C)OC(=O)C[C@H](O)C[C@H](O)CC[C@@H](O)[C@H](O)C[C@H](O)C[C@]4(O)C[C@H](O)[C@@H](C(=O)O)[C@H](C3)O4)O[C@H](C)[C@H]2O)cc1 (stereo partly drawn) | > 16 | 35 | 1.3 | Toxic | Toxic | Non-toxic | Active | Active | ~ 50% | 10 | ~86 | Activity [21]: Toxic; Activity [15]: Non-toxic; Activity [16]: Non-toxic; Activity [17]: Non-toxic; Activity [18]: Non-toxic
C[C@@H]1[C@H](O)[C@@H](C)/C=C/C=C/C=C/C=C/C=C/C=C/C=C/[C@H](O[C@@H]2O[C@H](C)[C@@H](O)[C@H](N)[C@@H]2O)C[C@@H]2O[C@](O)(C[C@@H](O)C[C@@H](O)[C@H](O)CC[C@@H](O)C[C@@H](O)CC(=O)O[C@H]1C)C[C@H](O)[C@H]2C(=O)O [AMPHOTERICIN B] |  |  |  |  |  |  |  |  |  |  | 0 | Activity [22]: Toxic; Activity [23]: Toxic; Activity [24]: Toxic
C[C@@H]1[C@H](O)[C@@H](C)/C=C/C=C/C=C/C=C/C=C/C=C/C=C/[C@H](O[C@@H]2O[C@H](C)[C@@H](O)[C@H](N)[C@@H]2O)C[C@@H]2O[C@](O)(C[C@@H](O)C[C@@H](O)[C@H](O)CC[C@@H](O)C[C@@H](O)CC(=O)O[C@H]1C)C[C@H](O)[C@H]2NC(=O)NCCN |  |  |  |  |  |  |  |  |  |  |  | MIC (Candida albicans [25]): 500 µg/mL (≈ 510 µM)
C[C@@H]1[C@H](O)[C@@H](C)/C=C/C=C/C=C/C=C/C=C/C=C/C=C/[C@H](O[C@@H]2O[C@H](C)[C@@H](O)[C@H](N)[C@@H]2O)C[C@@H]2O[C@](O)(C[C@@H](O)C[C@@H](O)[C@H](O)CC[C@@H](O)C[C@@H](O)CC(=O)O[C@H]1C)C[C@H](O)[C@H]2NC(=O)C(CO)CO |  |  |  |  |  |  |  |  |  |  |  | MIC (Candida albicans [26]): 120 µg/mL (≈ 120 µM)
